Experimental data: PMC5218480 (PLoS ONE, 2017)

System: MV-4-11 cells
Experiment: Gene expression microarray analysis (Affymetrix PrimeView) and GSEA
Format: cell-based, human
Set-up: RFU PODN (11730768_x_at) / Fold change /veh PODN (11730768_x_at) / RFU LINC00158 (11744669_a_at) / Fold change /veh LINC00158 (11744669_a_at) / RFU DUSP10 (11751237_a_at) / Fold change /veh DUSP10 (11751237_a_at) / RFU ID3 (11757404_x_at) / Fold change /veh ID3 (11757404_x_at) / RFU PLEKHG5 (11737974_s_at) / Fold change /veh PLEKHG5 (11737974_s_at) / RFU LRRC4B (11730491_at) / Fold change /veh LRRC4B (11730491_at) / RFU GIMAP4 (11747438_a_at) / Fold change /veh GIMAP4 (11747438_a_at) / RFU KRT8 (11758183_x_at) / Fold change /veh KRT8 (11758183_x_at) / RFU CNN1 (11734310_a_at) / Fold change /veh CNN1 (11734310_a_at) / RFU VPS37D (11726825_at) / Fold change /veh VPS37D (11726825_at) / RFU C10orf10 (11716522_x_at) / Fold change /veh C10orf10 (11716522_x_at) / RFU KIR2DL2 /// KIR2DL4 /// KIR2DL5A /// KIR2DL5B /// KIR2DS1 /// KIR2DS2 /// KIR2DS3 /// KIR2DS4 /// KIR3DL3 /// KIR3DL3 /// KIR3DS1 (11738374_at) / Fold change /veh KIR2DL2 /// KIR2DL4 /// KIR2DL5A /// KIR2DL5B /// KIR2DS1 /// KIR2DS2 /// KIR2DS3 /// KIR2DS4 /// KIR3DL3 /// KIR3DL3 /// KIR3DS1 (11738374_at) / RFU C1QL1 (11718748_at) / Fold change /veh C1QL1 (11718748_at) / RFU TMPRSS4 (11747572_a_at) / Fold change /veh TMPRSS4 (11747572_a_at) / RFU HAMP (11756126_x_at) / Fold change /veh HAMP (11756126_x_at) / RFU RNFT2 (11725882_a_at) / Fold change /veh RNFT2 (11725882_a_at) / RFU NR4A2 (11747474_a_at) / Fold change /veh NR4A2 (11747474_a_at) / RFU ABCC12 (11746883_a_at) / Fold change /veh ABCC12 (11746883_a_at) / RFU TMEM136 (11760407_x_at) / Fold change /veh TMEM136 (11760407_x_at) / RFU CLDN22 /// WWC2 (11732394_at) / Fold change /veh CLDN22 /// WWC2 (11732394_at) / RFU HLA-DPB1 (11760878_x_at) / Fold change /veh HLA-DPB1 (11760878_x_at) / RFU SPINT1 (11716480_a_at) / Fold change /veh SPINT1 (11716480_a_at) / RFU GAP43 (11754022_s_at) / Fold change /veh GAP43 (11754022_s_at) / RFU A4GNT (11735810_at) / Fold change /veh A4GNT (11735810_at) / RFU PRB3 (11715151_x_at) / Fold change /veh PRB3 (11715151_x_at) / RFU TUBB4B (11761932_at) / Fold change /veh TUBB4B (11761932_at) / RFU CAPN14 (11732068_a_at) / Fold change /veh CAPN14 (11732068_a_at) / RFU TMCC2 (11721928_a_at) / Fold change /veh TMCC2 (11721928_a_at) / RFU IRGQ (11745062_a_at) / Fold change /veh IRGQ (11745062_a_at) / RFU FAM174B (11720279_a_at) / Fold change /veh FAM174B (11720279_a_at) / RFU TMPRSS4 (11748680_a_at) / Fold change /veh TMPRSS4 (11748680_a_at) / RFU FAM212B (11763350_a_at) / Fold change /veh FAM212B (11763350_a_at) / RFU PLEKHG5 (11743358_a_at) / Fold change /veh PLEKHG5 (11743358_a_at) / RFU ZSCAN30 (11745921_a_at) / Fold change /veh ZSCAN30 (11745921_a_at) / RFU CMKLR1 (11741424_a_at) / Fold change /veh CMKLR1 (11741424_a_at) / RFU LOC101060620 /// MAPK8IP1 (11723275_at) / Fold change /veh LOC101060620 /// MAPK8IP1 (11723275_at) / RFU SPTSSB (11747773_x_at) / Fold change /veh SPTSSB (11747773_x_at) / RFU PRSS12 (11739890_at) / Fold change /veh PRSS12 (11739890_at) / RFU BIN1 (11741810_x_at) / Fold change /veh BIN1 (11741810_x_at) / RFU WNT11 (11732464_a_at) / Fold change /veh WNT11 (11732464_a_at) / RFU C10orf10 (11716521_a_at) / Fold change /veh C10orf10 (11716521_a_at) / RFU C5orf56 (11738089_at) / Fold change /veh C5orf56 (11738089_at) / RFU CYB561 (11721691_x_at) / Fold change /veh CYB561 (11721691_x_at) / RFU ANKRD19P (11752326_a_at) / Fold change /veh ANKRD19P (11752326_a_at) / RFU OR2T12 /// OR2T33 /// OR2T8 (11738714_s_at) / Fold change /veh OR2T12 /// OR2T33 /// OR2T8 (11738714_s_at) / RFU VCAN (11748164_a_at) / Fold change /veh VCAN (11748164_a_at) / RFU JSRP1 (11732532_at) / Fold change /veh JSRP1 (11732532_at) / RFU KRTAP10-11 (11738290_x_at) / Fold change /veh KRTAP10-11 (11738290_x_at) / RFU MYO3A (11730013_a_at) / Fold change /veh MYO3A (11730013_a_at) / RFU EBF3 (11725865_a_at) / Fold change /veh EBF3 (11725865_a_at) / RFU CAMK2N1 (11719241_x_at) / Fold change /veh CAMK2N1 (11719241_x_at) / RFU C5orf56 (11738088_a_at) / Fold change /veh C5orf56 (11738088_a_at) / RFU OLFML3 (11715873_a_at) / Fold change /veh OLFML3 (11715873_a_at) / RFU LOC100653217 /// NTM (11731650_a_at) / Fold change /veh LOC100653217 /// NTM (11731650_a_at) / RFU MAPK11 (11762145_a_at) / Fold change /veh MAPK11 (11762145_a_at) / RFU FIZ1 (11724087_x_at) / Fold change /veh FIZ1 (11724087_x_at) / RFU OASL (11726364_x_at) / Fold change /veh OASL (11726364_x_at) / RFU SOX15 (11748057_x_at) / Fold change /veh SOX15 (11748057_x_at) / RFU CD79A (11719716_a_at) / Fold change /veh CD79A (11719716_a_at) / RFU HIST1H1D (11736915_at) / Fold change /veh HIST1H1D (11736915_at) / RFU CASKIN2 (11723855_a_at) / Fold change /veh CASKIN2 (11723855_a_at) / RFU LOC730098 (11760151_x_at) / Fold change /veh LOC730098 (11760151_x_at) / RFU OR4N2 (11742367_at) / Fold change /veh OR4N2 (11742367_at) / RFU PRRT2 (11749266_a_at) / Fold change /veh PRRT2 (11749266_a_at) / RFU SNX32 (11753110_a_at) / Fold change /veh SNX32 (11753110_a_at) / RFU CDHR5 (11726645_a_at) / Fold change /veh CDHR5 (11726645_a_at) / RFU RCAN1 (11760418_a_at) / Fold change /veh RCAN1 (11760418_a_at) / RFU FAM167A (11723789_a_at) / Fold change /veh FAM167A (11723789_a_at) / RFU FAM26E (11764081_at) / Fold change /veh FAM26E (11764081_at) / RFU ISYNA1 (11749810_s_at) / Fold change /veh ISYNA1 (11749810_s_at) / RFU ACY1 (11761880_at) / Fold change /veh ACY1 (11761880_at) / RFU 11764098_at / Fold change /veh 11764098_at / RFU SAMD14 (11745864_x_at) / Fold change /veh SAMD14 (11745864_x_at) / RFU NPB (11741838_a_at) / Fold change /veh NPB (11741838_a_at) / RFU TMPRSS6 (11731388_a_at) / Fold change /veh TMPRSS6 (11731388_a_at) / RFU KRTAP10-2 (11738614_at) / Fold change /veh KRTAP10-2 (11738614_at) / RFU ARHGAP8 /// PRR5-ARHGAP8 (11727945_x_at) / Fold change /veh ARHGAP8 /// PRR5-ARHGAP8 (11727945_x_at) / RFU KRTAP5-7 /// NADSYN1 (11734609_at) / Fold change /veh KRTAP5-7 /// NADSYN1 (11734609_at) / RFU RASL12 (11751679_a_at) / Fold change /veh RASL12 (11751679_a_at) / RFU CDKN2B (11736163_a_at) / Fold change /veh CDKN2B (11736163_a_at) / RFU PRF1 (11729649_at) / Fold change /veh PRF1 (11729649_at) / RFU, ZNF638 /// ZNF638-IT1 / Fold change vs veh, ZNF638 /// ZNF638-IT1 / RFU, PANK3 / Fold change vs veh, PANK3 / RFU, SH3YL1 / Fold change vs veh, SH3YL1 / RFU, ZEB2 / Fold change vs veh, ZEB2 / RFU, NRIP1 / Fold change vs veh, NRIP1 / RFU, PTTG1IP / Fold change vs veh, PTTG1IP / RFU, CAPN2 / Fold change vs veh, CAPN2 / RFU, MED14 / Fold change vs veh, MED14 / RFU, SNORA58 / Fold change vs veh, SNORA58 / RFU, C1orf63 / Fold change vs veh, C1orf63 / RFU, LRRFIP1 / Fold change vs veh, LRRFIP1 / RFU, NDUFAF7 / Fold change vs veh, NDUFAF7 / RFU, SLC12A2 / Fold change vs veh, SLC12A2 / RFU, IBTK / Fold change vs veh, IBTK / RFU, ESF1 / Fold change vs veh, ESF1 / Fold change vs veh, TMEM50B / RFU, TAOK1 / Fold change vs veh, TAOK1 / RFU, ACBD3 / Fold change vs veh, ACBD3 / RFU, TMA16 / Fold change vs veh, TMA16 / RFU, RWDD3 / Fold change vs veh, RWDD3 / RFU, BCAT1 / Fold change vs veh, BCAT1 / RFU, EDEM3 / Fold change vs veh, EDEM3 / RFU, TMEM33 / Fold change vs veh, TMEM33 / RFU, WDR75 / Fold change vs veh, WDR75 / RFU, AHCTF1 / Fold change vs veh, AHCTF1 / RFU, TFRC / Fold change vs veh, TFRC / RFU, ZDHHC17 / Fold change vs veh, ZDHHC17 / RFU, NOM1 / Fold change vs veh, NOM1 / RFU, ARL8B / Fold change vs veh, ARL8B / RFU, ZBTB11 / Fold change vs veh, ZBTB11 / RFU, TAMM41 / Fold change vs veh, TAMM41 / RFU, KIAA1704 /// LOC100996395 / Fold change vs veh, KIAA1704 /// LOC100996395 / RFU, ING1 / Fold change vs veh, ING1 / RFU, TRMT61B / Fold change vs veh, TRMT61B / RFU, FUBP3 / Fold change vs veh, FUBP3 / RFU, TP53 / Fold change vs veh, TP53 / RFU, TNKS2 / Fold change vs veh, TNKS2 / RFU, ZFP14 / Fold change vs veh, ZFP14 / RFU, ACTR2 / Fold change vs veh, ACTR2 / RFU, PPP3R1 / Fold change vs veh, PPP3R1 / RFU, PIK3R1 / Fold change vs veh, PIK3R1 / RFU, HNRNPA1 / Fold change vs veh, HNRNPA1 / RFU, RNF170 / Fold change vs veh, RNF170 / RFU, ZNF28 / Fold change vs veh, ZNF28 / RFU, RNGTT / Fold change vs veh, RNGTT / RFU, OGT / Fold change vs veh, OGT / RFU, BRD1 / Fold change vs veh, BRD1 / RFU, MARS / Fold change vs veh, MARS / RFU, ZNF655 / Fold change vs veh, ZNF655 / RFU, FAHD1 / Fold change vs veh, FAHD1 / RFU, BDP1 / Fold change vs veh, BDP1 / RFU, LRRCC1 / Fold change vs veh, LRRCC1 / RFU, ARID1A / Fold change vs veh, ARID1A / RFU, ZNF146 / Fold change vs veh, ZNF146 / RFU, ZNF330 / Fold change vs veh, ZNF330 / RFU, GPN3 / Fold change vs veh, GPN3 / RFU, C9orf123 / Fold change vs veh, C9orf123 / RFU, N4BP2L2 / Fold change vs veh, N4BP2L2 / RFU, ARFIP1 / Fold change vs veh, ARFIP1 / RFU, FAM179B / Fold change vs veh, FAM179B / RFU, BCL10 / Fold change vs veh, BCL10 / RFU, UHRF1BP1L / Fold change vs veh, UHRF1BP1L / RFU, BET1 / Fold change vs veh, BET1 / RFU, CNOT2 / Fold change vs veh, CNOT2 / RFU, ZNF268 / Fold change vs veh, ZNF268 / Fold change vs veh, ZNF507 / RFU, DGCR2 / Fold change vs veh, DGCR2 / RFU, WDSUB1 / Fold change vs veh, WDSUB1 / Fold change vs veh, HSP90B1 /// MIR3652 / RFU, ADSS / Fold change vs veh, ADSS / RFU, GK / Fold change vs veh, GK / RFU, ZNF148 / Fold change vs veh, ZNF148 / RFU, TAF9 / Fold change vs veh, TAF9 / RFU, SLC1A5 / Fold change vs veh, SLC1A5 / RFU, SLMO2 / Fold change vs veh, SLMO2 / RFU, ABCC4 / Fold change vs veh, ABCC4 / RFU, LOC101060439 /// RAP1B / Fold change vs veh, LOC101060439 /// RAP1B / RFU, RFX7 / Fold change vs veh, RFX7 / RFU, GTPBP10 / Fold change vs veh, GTPBP10 / RFU, CNEP1R1 / Fold change vs veh, CNEP1R1 / RFU, BIVM-ERCC5 /// ERCC5 / Fold change vs veh, BIVM-ERCC5 /// ERCC5 / RFU, ILF3 / Fold change vs veh, ILF3 / RFU 11762660_at / Fold change /veh 11762660_at / RFU VCAN (11757783_s_at) / Fold change /veh VCAN (11757783_s_at) / RFU DDX43 (11728927_at) / Fold change /veh DDX43 (11728927_at) / RFU KRT8 (11758188_x_at) / Fold change /veh KRT8 (11758188_x_at) / RFU NKD1 (11759106_at) / Fold change /veh NKD1 (11759106_at) / RFU SRD5A1 (11742802_a_at) / Fold change /veh SRD5A1 (11742802_a_at) / RFU TPSAB1 /// TPSB2 (11721975_s_at) / Fold change /veh TPSAB1 /// TPSB2 (11721975_s_at) / RFU GSTM3 (11746129_a_at) / Fold change /veh GSTM3 (11746129_a_at) / RFU IL23R (11737362_x_at) / Fold change /veh IL23R (11737362_x_at) / RFU TMEM51 (11727254_a_at) / Fold change /veh TMEM51 (11727254_a_at) / RFU PIWIL2 (11732686_x_at) / Fold change /veh PIWIL2 (11732686_x_at) / RFU ORM1 (11744905_x_at) / Fold change /veh ORM1 (11744905_x_at) / RFU CCDC152 (11743942_at) / Fold change /veh CCDC152 (11743942_at) / RFU ECM1 (11717891_a_at) / Fold change /veh ECM1 (11717891_a_at) / RFU IL23R (11748794_a_at) / Fold change /veh IL23R (11748794_a_at) / RFU TNFAIP8L3 (11732012_x_at) / Fold change /veh TNFAIP8L3 (11732012_x_at) / RFU MBOAT4 (11741988_at) / Fold change /veh MBOAT4 (11741988_at) / RFU 11764193_at / Fold change /veh 11764193_at / RFU TMEM53 (11763286_at) / Fold change /veh TMEM53 (11763286_at) / RFU MAGEB2 (11727129_at) / Fold change /veh MAGEB2 (11727129_at) / RFU TMEM200A (11744735_a_at) / Fold change /veh TMEM200A (11744735_a_at) / RFU CCDC152 (11751479_a_at) / Fold change /veh CCDC152 (11751479_a_at) / RFU FAM211A (11726209_a_at) / Fold change /veh FAM211A (11726209_a_at) / RFU RGS16 (11746705_a_at) / Fold change /veh RGS16 (11746705_a_at) / RFU VCAN (11755009_s_at) / Fold change /veh VCAN (11755009_s_at) / RFU RHOB (11743442_s_at) / Fold change /veh RHOB (11743442_s_at) / RFU RGS16 (11720943_a_at) / Fold change /veh RGS16 (11720943_a_at) / RFU RGS16 (11720944_at) / Fold change /veh RGS16 (11720944_at) / RFU, VPS4B / Fold change vs veh, VPS4B / RFU, CREB1 / Fold change vs veh, CREB1 / RFU, DNAJC13 / Fold change vs veh, DNAJC13 / RFU, GNAQ / Fold change vs veh, GNAQ / RFU, CDK5R1 / Fold change vs veh, CDK5R1 / RFU, ZRANB3 / Fold change vs veh, ZRANB3 / RFU, CUL4A / Fold change vs veh, CUL4A / RFU, CCNY / Fold change vs veh, CCNY / RFU, UFL1 / Fold change vs veh, UFL1 / RFU, COG3 / Fold change vs veh, COG3 / RFU, DIAPH2 / Fold change vs veh, DIAPH2 / RFU, SKA2 / Fold change vs veh, SKA2 / RFU, AFF3 / Fold change vs veh, AFF3 / RFU, LMF1 / Fold change vs veh, LMF1 / RFU, IPO11 / Fold change vs veh, IPO11 / RFU, DFFB / Fold change vs veh, DFFB / RFU, FOXP1 / Fold change vs veh, FOXP1 / RFU, CARD8 / Fold change vs veh, CARD8 / RFU, STRN3 / Fold change vs veh, STRN3 / RFU, ADK / Fold change vs veh, ADK / RFU, RASSF2 / Fold change vs veh, RASSF2 / RFU, WIPF1 / Fold change vs veh, WIPF1 / RFU, LARP1B / Fold change vs veh, LARP1B / RFU, RASA1 / Fold change vs veh, RASA1 / RFU, RB1 / Fold change vs veh, RB1 / RFU, PPFIA1 / Fold change vs veh, PPFIA1 / RFU, MAT2A / Fold change vs veh, MAT2A / RFU, CCT5 / Fold change vs veh, CCT5 / RFU, WDR92 / Fold change vs veh, WDR92 / RFU, CUX1 / Fold change vs veh, CUX1 / RFU, TTC7A / Fold change vs veh, TTC7A / RFU, TMEM135 / Fold change vs veh, TMEM135 / RFU, DEPTOR / Fold change vs veh, DEPTOR / RFU, CPM / Fold change vs veh, CPM / RFU, DNAJB6 / Fold change vs veh, DNAJB6 / RFU, CACNA2D3 / Fold change vs veh, CACNA2D3 / RFU, DTX4 / Fold change vs veh, DTX4 / RFU, TFCP2 / Fold change vs veh, TFCP2 / RFU, GMCL1 /// GMCL1P1 / Fold change vs veh, GMCL1 /// GMCL1P1 / RFU, AEBP2 / Fold change vs veh, AEBP2 / RFU, SNHG1 /// SNORD22 /// SNORD25 /// SNORD26 /// SNORD27 /// SNORD28 /// SNORD29 /// SNORD31 / Fold change vs veh, SNHG1 /// SNORD22 /// SNORD25 /// SNORD26 /// SNORD27 /// SNORD28 /// SNORD29 /// SNORD31 / Fold change (Aza/veh), C12orf56 (ProbeSet 11735607_a_at) / Fold change (ACY-1035/veh), C12orf56 (ProbeSet 11735607_a_at) / Fold change (Aza/veh), FGFR1OP (ProbeSet 11751329_s_at) / Fold change (ACY-1035/veh), FGFR1OP (ProbeSet 11751329_s_at) / Fold change (Aza/veh), VPS36 (ProbeSet 11739960_a_at) / Fold change (ACY-1035/veh), VPS36 (ProbeSet 11739960_a_at) / RFU SYPL1 (11715823_x_at) / Fold change /veh SYPL1 (11715823_x_at) / RFU IGFBP7 (11715501_s_at) / Fold change /veh IGFBP7 (11715501_s_at) / RFU REEP3 (11722064_at) / Fold change /veh REEP3 (11722064_at) / RFU IGLL1 (11728026_x_at) / Fold change /veh IGLL1 (11728026_x_at): dose or concentration left out as unconfirmed
Details: MV-4-11 cells, 48 hours

Nc1ncn([C@@H]2O[C@H](CO)[C@@H](O)[C@H]2O)c(=O)n1 [azacitidine]
Fold change /veh SRD5A1 (11742802_a_at): 1.21
